According to patent publication US5086054A, “Novel arylcycloalkanepolyalkylamines” (SRI International, priority 1990, dated 1992):
Values joined by “and” are separate entries in the source; they are usually repeats but may differ in a detail not shown here. Identical values can stand only once. “Also recorded” adds a separate entry of the source. Counter-ions that a name gives are not always drawn. Like-named read-outs stand apart in the source and are kept apart here.

Tests used:
5-HT2 = 5-HT2 (Cavia porcellus, UniProt A0A286Y537); assay: 5-HT2 receptor binding; set-up: species or system guinea-pig
Description: (§1) This example illustrates the testing of compounds of this invention in dopamine D2, 5-HT2, muscarinic acetylcholine, α1 -adrenoceptor and β-adrenoceptor receptor assays. The receptor assay methods are described in Eur. J. Pharmacol., 155:345 (1988) except that in the β-adrenoceptor assay, [^125 I]-pindolol was used instead of [^3 H] dihydroalprenolol.
(§2) In this study, guinea-pig brains were used for binding studies. Homogenization and centrifugation procedures for preparation of brain membranes for each receptor assay were the same as described in Example 4 for the σ and PCP receptors. However, brain regions, tissue contents, and buffers may differ depending on the assay. Conditions of binding assays for various receptors were as follows:
(§3) Filtration and washing conditions were the same as described above for the σ receptor assay. Nonspecific binding for each receptor was defined by the inclusion of 1 μM haloperidol for dopamine D2, 1 μM haloperidol for 5-HT2, 10 μM scopolamine for muscarinic acetylcholine, 10 μM prazosin for α1 -adrenoceptor, and 0.2 μM 1-propranolol for β-adrenoceptor. Retained radioactivity was measured by liquid scintillation spectrometry except for ^125 I-pindolol which was measured by the LKB gamma counter.
(§4) Programs in Biomed. 17:107 (1983)].

α1 -ADRENOCEPTOR = assay: α1-adrenoceptor binding ([3H]-prazosin); set-up: species or system guinea-pig
Description: as §1, §2
For α1 -adrenoceptor assay, [^3 H]-prazosin (0.4 nM) was incubated in a 1 ml assay (50 mM Tris-HCl, pH 7.4) for 1 hour at 23° C. with membranes from 1 mg of whole brain minus cerebellum.
as §3, §4

SIGMA RECEPTOR = molecular target: T1, SIGMA RECEPTOR (Cavia porcellus, UniProt Q60492); assay: Sigma receptor binding assay ([3H]-d-SKF-10,047 displacement, brain membranes); set-up: species or system guinea-pig (male Hartley); details: for SIGMA RECEPTOR SLOPE: slope of dose response curve
T1 construct: Two milliter aliquots of the brain membrane preparation, containing 1.7 mg of protein; tissue Pel-Freeze (Rogers, Arkansas); host or cells: guinea-pig brains plus cerebella, membranes
Experimental: (§5) This example illustrates testing of compounds in receptor binding assays.
(§6) Frozen brains from male Hartley guinea-pigs were obtained from Pel-Freeze (Rogers, Arkansas).
(§7) The brains plus cerebella were homogenized in 10 volumes (v/w) of 0.1M, pH 7.4, ice-cold Tris-HCl buffer with a Brinkmann polytron at setting 4 for 20 seconds. The homogenates were centrifuged at 20,000×g for 20 minutes at 4° C. The pellets were suspended in 10 volumes of ice-cold water and, after sitting on ice for 10 minutes, were centrifuged 30 minutes at 20,000×g at 4° C. The resulting pellets were resuspended in the above Tris buffer in ratio 1:100 (w/v) for σ receptor assays or in 5 mM Tris-HCl having pH 7.4, for PCP receptor assays. The final suspension was homogenized with a dounce glass-glass tissue grinder Wheaton "200", at small clearance (B), with three strokes before use. Two milliter aliquots of the brain membrane preparation, containing 1.7 mg of protein, were incubated in quadruplicate for one hour at 23° C. with competing mixture of ligand and radioligand. For σ receptors, [^3 H]-d-SKF-10,047, 2 nM was used. For PCP receptors, [^3 H] TCP [^3 H]-1-[1-(2-thienyl)cyclohexyl]piperidine), 1 nM was used. The nonspecific bindings were defined by 0.1 mM d-SKF-10,047 and 0.1 mM phencyclidine respectively for σ and PCP receptors. After incubation, free ligand was separated from bound ligand by rapid filtration through Whatman GF/C filters. The filters had been soaked before use in isoamyl alcohol-saturated water to prevent nonspecific [^3 H]-d-SKF-10,047 binding to the filter. In the PCP receptor assay, the filter was soaked in 0.5% polyethylenimine to reduce the filter binding of [^3 H]-TCP. After filtration, the trapped tissue was washed three times with 4 ml aliquots of 0.1 M ice-cold Tris buffer at pH 7.4 for σ receptors and 5 mM, ice-cold Tris buffer pH 7.4 for PCP receptors. The filters were transferred to 5 ml of liquid scintillation fluid and the retained radioactivity was measured by liquid scintillation spectrometry.

PCP RECEPTOR = assay: PCP receptor binding assay ([3H]-TCP displacement, brain membranes); set-up: species or system guinea-pig (male Hartley); details: for potency at PCP receptors (in words): hydrochloride
Experimental: as §5, §6, §7, §4

MUSCARINIC ACETYLCHOLINE = assay type: binding, guinea-pig
Description: as §1, §2
For muscarinic acetylcholine assay, […]) [^3 H]-quinuclidinyl benzylate ([^3 H]-QNB) was incubated in a 2 ml assay (50 mM Tris-HCl, pH 7.4) for 2 hours at 23° C. with membranes from 2 mg of whole brain minus cerebellum.
as §3, §4

β-ADRENOCEPTOR = assay: β-adrenoceptor binding ([125I]-pindolol); set-up: species or system guinea-pig
Description: as §1, §2
For β-adrenoceptor, [^125 I]-pindolol (0.05 nM) was incubated in a 1 ml assay (50 mM Tris-HCl, pH 7.4) for 1 hr at 23° C. with membranes from 1 mg of whole brain minus cerebellum.
as §3, §4

DOPAMINE D2 = molecular target: T2, DOPAMINE D2 (Cavia porcellus, UniProt H0VE83); assay: Dopamine D2 receptor binding ([3H]-spiroperidol); set-up: species or system guinea-pig
T2 construct: printed as cerebral cortical tissue, [3H]spiroperidol, haloperidol blank
Description: as §1, §2
For dopamine D2 assay, 3 H-spiroperidol (0.15 nM) was incubated in a 2 ml assay (50 mM Tris-HCl, pH 7.4) for 2 hours at 23° C. with membranes from 12 mg of cerebral cortical tissue.
as §3, §4

[1] = Table 4, IC50 and nM only stated in text, read-out: 5-HT2
[2] = Table 4, IC50 and nM only stated in text, read-out: α1 -ADRENOCEPTOR
[3] = Table 4, IC50 and nM only stated in text, read-out: SIGMA
[4] = Table 1, mean ± error (n), read-out: PCP RECEPTOR IC50
[5] = Table 4, IC50 and nM only stated in text, read-out: PCP
[6] = Table 4, IC50 and nM only stated in text, read-out: MUSCARINIC ACETYLCHOLINE
[7] = read-out: potency (IC50) at muscarinic acetylcholine receptor
[8] = Table 4, IC50 and nM only stated in text, read-out: β-ADRENOCEPTOR
[9] = read-out: IC50 / potency for PCP receptors

T1 sequence (Q60492 whole entry): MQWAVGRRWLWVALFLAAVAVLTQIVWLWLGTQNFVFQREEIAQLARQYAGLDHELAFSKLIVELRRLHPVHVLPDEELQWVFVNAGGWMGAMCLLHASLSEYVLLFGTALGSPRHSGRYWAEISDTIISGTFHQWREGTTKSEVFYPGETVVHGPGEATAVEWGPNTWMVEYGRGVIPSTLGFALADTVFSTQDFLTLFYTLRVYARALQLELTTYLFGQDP
T2 sequence (H0VE83 entry or part of it): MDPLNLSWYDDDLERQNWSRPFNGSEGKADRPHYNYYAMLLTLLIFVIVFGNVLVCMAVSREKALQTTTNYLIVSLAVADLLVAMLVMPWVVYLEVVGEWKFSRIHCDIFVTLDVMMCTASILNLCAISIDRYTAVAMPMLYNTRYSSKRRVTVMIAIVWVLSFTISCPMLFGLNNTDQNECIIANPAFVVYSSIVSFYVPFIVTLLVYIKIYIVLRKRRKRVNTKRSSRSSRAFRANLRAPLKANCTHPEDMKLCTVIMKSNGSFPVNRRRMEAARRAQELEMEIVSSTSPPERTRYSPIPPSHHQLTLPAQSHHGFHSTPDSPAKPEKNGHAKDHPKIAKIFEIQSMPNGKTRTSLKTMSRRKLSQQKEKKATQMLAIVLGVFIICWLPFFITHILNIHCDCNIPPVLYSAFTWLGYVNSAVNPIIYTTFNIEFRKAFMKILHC
Sequence of 5-HT2 (A0A286Y537 1-470): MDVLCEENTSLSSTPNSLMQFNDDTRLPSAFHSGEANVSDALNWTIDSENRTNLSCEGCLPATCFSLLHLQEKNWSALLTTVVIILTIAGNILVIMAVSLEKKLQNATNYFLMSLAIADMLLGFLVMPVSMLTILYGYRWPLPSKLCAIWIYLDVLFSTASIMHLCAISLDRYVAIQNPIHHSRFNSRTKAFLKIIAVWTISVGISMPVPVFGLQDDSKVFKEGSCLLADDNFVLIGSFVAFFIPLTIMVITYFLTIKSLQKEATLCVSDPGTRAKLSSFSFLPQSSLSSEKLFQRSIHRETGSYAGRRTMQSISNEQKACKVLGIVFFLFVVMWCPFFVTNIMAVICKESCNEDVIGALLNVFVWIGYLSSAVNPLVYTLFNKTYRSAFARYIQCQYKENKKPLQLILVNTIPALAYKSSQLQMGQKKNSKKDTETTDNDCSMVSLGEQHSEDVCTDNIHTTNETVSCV

SMILES: O=C(OCCN1CCCCC1)C1(c2ccccc2)CCCCC1 [Compound 3, 2-(1-Piperidino)ethyl 1-phenylcyclohexane-1-carboxylate hydrochloride]
- potency at 5-HT2 receptors (in words) (5-HT2): moderate potencies at dopamine D-2 and 5-HT2 receptors
- IC50 (5-HT2; [1]): 3660 nM
- IC50 (α1 -ADRENOCEPTOR; [2]): 24100 nM
- IC50 (SIGMA RECEPTOR; Table 1, mean ± error (n), read-out: SIGMA RECEPTOR IC50): 24 nM
- SIGMA RECEPTOR SLOPE (SIGMA RECEPTOR; Table 1): 0.45 ± 0.04
- IC50 (SIGMA RECEPTOR; [3]): 26 ± 7 nM
- potency at σ receptors (in words) (SIGMA RECEPTOR; hydrochloride): increased the potency of the compound in the σ receptor assay; also recorded: very potent in the σ assay; also recorded: very high
- IC50 (SIGMA RECEPTOR; read-out: IC50 at σ receptors): < 100 nM
- increased potency for σ receptors (SIGMA RECEPTOR; relative to PCP (1)): more than 300 times
- IC50 (PCP RECEPTOR; [4]): 34900 nM
- IC50 (PCP RECEPTOR; [5]): 34900 nM
- potency at PCP receptors (in words) (PCP RECEPTOR): reduced the potency in the PCP receptor assay; also recorded: inactive in the PCP assay; also recorded: very weak or inactive in the PCP assay; also recorded: negligible; also recorded: low potency at PCP receptors
- decreased potency for PCP receptors (PCP RECEPTOR; relative to PCP (1)): about 700 times
- potency at muscarinic acetylcholine receptors (in words) (MUSCARINIC ACETYLCHOLINE): quite potent at muscarinic acetylcholine receptors
- IC50 (MUSCARINIC ACETYLCHOLINE; [6]): 46 ± 7 nM
- IC50 (MUSCARINIC ACETYLCHOLINE; [7]): 46 nM
- IC50 (β-ADRENOCEPTOR; [8]): 80400 nM
- potency at dopamine D-2 receptors (in words) (DOPAMINE D2): moderate potencies at dopamine D-2 and 5-HT2 receptors

SMILES: CCN(CC)CCOC(=O)C1(c2ccccc2)CCCCC1.Cl [Compound 15, 2-(Diethylamino)ethyl 1-phenylcyclohexane-1-carboxylate hydrochloride]
- potency at 5-HT2 receptors (in words) (5-HT2): moderate potencies at dopamine D-2 and 5-HT2 receptors
- IC50 (5-HT2; [1]): 2180 nM
- IC50 (α1 -ADRENOCEPTOR; [2]): 30100 nM
- SIGMA RECEPTOR SLOPE (SIGMA RECEPTOR; Table 1): 0.66 ± 0.16
- IC50 (SIGMA RECEPTOR; [3]): 30 ± 5 nM
- potency at σ receptors (in words) (SIGMA RECEPTOR; hydrochloride): σ receptor potency increased; also recorded: very potent in the σ assay; also recorded: very high
- IC50 (SIGMA RECEPTOR; read-out: IC50 at σ receptors): < 100 nM
- IC50 (PCP RECEPTOR; [4]): 40900 nM
- IC50 (PCP RECEPTOR; [5]): 40900 nM
- potency at PCP receptors (in words) (PCP RECEPTOR): inactive in the PCP assay; also recorded: very weak or inactive in the PCP assay; also recorded: negligible; also recorded: low potency at PCP receptors
- potency at muscarinic acetylcholine receptors (in words) (MUSCARINIC ACETYLCHOLINE): quite potent at muscarinic acetylcholine receptors
- IC50 (MUSCARINIC ACETYLCHOLINE; [6]): 189 ± 35 nM
- IC50 (MUSCARINIC ACETYLCHOLINE; [7]): 189 nM
- IC50 (β-ADRENOCEPTOR; [8]): 81900 nM
- potency at dopamine D-2 receptors (in words) (DOPAMINE D2): moderate potencies at dopamine D-2 and 5-HT2 receptors

SMILES: O=C(OCCN1CCCC1)C1(c2ccccc2)CCCCC1 [Compound 8, 2-(1-Pyrrolidino)ethyl 1-phenylcyclohexane-1-carboxylate hydrochloride]
- potency at 5-HT2 receptors (in words) (5-HT2): moderate potencies at dopamine D-2 and 5-HT2 receptors
- IC50 (5-HT2; [1]): 2930 nM
- IC50 (α1 -ADRENOCEPTOR; [2]): 23200 nM
- SIGMA RECEPTOR SLOPE (SIGMA RECEPTOR; Table 1): 0.50 ± 0.02
- IC50 (SIGMA RECEPTOR; [3]): 5.1 ± 1.7 nM
- potency at σ receptors (in words) (SIGMA RECEPTOR; hydrochloride): σ receptor potency increased; also recorded: very high
- IC50 (SIGMA RECEPTOR; read-out: IC50 at σ receptors): 5 nM and < 100 nM
- IC50 (PCP RECEPTOR; [4]): 64700 nM
- IC50 (PCP RECEPTOR; [5]): 64700 nM
- potency at PCP receptors (in words) (PCP RECEPTOR): inactive in the PCP assay; also recorded: negligible; also recorded: low potency at PCP receptors
- IC50 (PCP RECEPTOR; [9]): ~64000 nM
- potency at muscarinic acetylcholine receptors (in words) (MUSCARINIC ACETYLCHOLINE): quite potent at muscarinic acetylcholine receptors
- IC50 (MUSCARINIC ACETYLCHOLINE; [6]): 123 ± 16 nM
- IC50 (MUSCARINIC ACETYLCHOLINE; [7]): 23 nM
- IC50 (β-ADRENOCEPTOR; [8]): 85000 nM
- potency at dopamine D-2 receptors (in words) (DOPAMINE D2): moderate potencies at dopamine D-2 and 5-HT2 receptors

SMILES: O=C(OCCN1CCOCC1)C1(c2ccccc2)CCCCC1 [Compound 12, 2-(4-Morpholino)ethyl 1-phenylcyclohexane-1-carboxylate hydrochloride]
- IC50 (5-HT2; [1]): 18700 nM
- IC50 (5-HT2; read-out: potency for 5-HT2): 18700 nM
- more potent at σ receptors than at 5-HT2 receptors (5-HT2; selectivity σ vs 5-HT2): ≥ 400 fold
- IC50 (α1 -ADRENOCEPTOR; [2]): > 100000 nM
- IC50 (α1 -ADRENOCEPTOR; read-out: potency for α1-adrenoceptor): > 100000 nM
- SIGMA RECEPTOR SLOPE (SIGMA RECEPTOR; Table 1): 0.48 ± 0.05
- potency at σ receptors (in words) (SIGMA RECEPTOR; hydrochloride): σ receptor potency increased; also recorded: very potent in the σ assay; also recorded: very high
- σ potency compared with other known σ ligands (in words) (SIGMA RECEPTOR; vs haloperidol, DTG, (+)-3-PPP, hydrochloride): not as great as other known σ ligands, such as for example haloperidol; also recorded: comparable to other σ ligands such a DTG and (+)-3-PPP
- IC50 (PCP RECEPTOR; [4]): > 100000 nM
- IC50 (PCP RECEPTOR; [5]): > 100000 nM
- potency at PCP receptors (in words) (PCP RECEPTOR): inactive in the PCP assay; also recorded: very weak or inactive in the PCP assay; also recorded: negligible; also recorded: low potency at PCP receptors; also recorded: relative inactivity
- IC50 (PCP RECEPTOR; [9]): < 100000 nM
- IC50 (MUSCARINIC ACETYLCHOLINE; [6]): 14000 nM
- IC50 (MUSCARINIC ACETYLCHOLINE; [7]): 14000 nM
- more potent at σ receptors than at muscarinic acetylcholine receptors (MUSCARINIC ACETYLCHOLINE; selectivity σ vs muscarinic): at least 300 fold
- IC50 (β-ADRENOCEPTOR; [8]): > 200000 nM
- IC50 (β-ADRENOCEPTOR; read-out: potency for β-adrenoceptor): > 200000 nM
